Measurements published in patent US20240174723A1, “STAPLED ANTIMICROBIAL PEPTIDES (STAMPS) AND USES THEREOF” (Lytica Therapeutics, Inc., priority 2021, published 2024).
In brackets after ≈: the same amount, converted by molar mass. Positions of bridges follow the written chain, without caps; N, C: chain ends. Non-standard residues stand in square brackets, D forms with d. Residues, ends and D or L forms follow the SMILES beside them. S5 = C=CCCC[C@](C)(N)C(=O)O; Dap = NC[C@H](N)C(=O)O

What was measured:
E. coli = assay type: cell-based, Escherichia coli
Protocol: (§1) Antimicrobial Activity Assay: The following microbroth dilution protocol was adapted from CLSI to determine the minimum inhibitory concentration (MIC) of StAMPs. Briefly, Mueller-Hinton broth (MHB) or cation-adjusted Mueller-Hinton broth (MHB II) was prepared and autoclaved. Then, a colony of bacterial cells was picked and grown overnight in broth at 37° C. and then diluted and allowed to grow again for 3-4 hours. Serial dilutions of peptide stocks in water (10 μl) were prepared using clear round-bottom polypropylene 96-well plates. Then 90 μl of bacteria in broth was added to give a final inoculum of 5×10^5 CFU/ml. The plates were then covered with porous tape to reduce evaporation and incubated for 20-24 hours at 37° C. The MIC was the minimum peptide concentration at which no visible bacterial growth was observed.
(§2) Renal toxicity was measured after 90 minutes of incubation, while liver toxicity was measured after 48 hours of incubation with StAMPs. N/A=not tested. The following apply to all peptides (i.e., StAMPs) listed in Tables A-C: Crosslinks (X^1—X^2 and X^3—X^4): (alk); N-terminus: —NH2; C-terminus: amidated with —NH2; counterion: Cl^−. The following apply to all peptides (i.e., StAMPs) listed in Table D: Crosslinks (X^1—X^2 and X^3—X^4): (alk); N-terminus: —NH2; C-terminus: as shown in table; counterion: Cl^−.

A. baumannii = assay type: cell-based, Acinetobacter baumannii
Protocol: as §1, §2

P. aeruginosa = assay type: cell-based, Pseudomonas aeruginosa
Protocol: as §1, §2
StAMP Micelle Formulation: DSPE-MPEG(2000) was suspended in buffered saline at 50-100 mg/mL overnight. StAMP stock solutions at 5-20 mg/mL in buffered saline were prepared and equal volumes of micelle and StAMP stock solution were mixed at the desired StAMP:Lipid ratio. Suspensions were allowed to sit for 5-10 minutes at room temperature before being used in in vitro and in vivo assays. […]

K. pneumoniae = assay type: cell-based, Klebsiella pneumoniae
Protocol: as §1, §2

S. aureus = assay type: cell-based, Staphylococcus aureus
Protocol: as §1, §2

in vitro = assay type: cell-based; details: human, Inhibitory Concentration at 50% Cytotoxicity (IC50) Human Liver Cells (HepG2)
Protocol: Cell culture: RPTEC were maintained in MEM media supplemented with growth factors. HEPG2 cell line was maintained in Eagle's Minimum Essential Medium (EMEM) supplemented with fetal bovine serum to a final concentration of 10%.
48 hours cytotoxicity assay: Cells were plated in a 96-well format, and after 4 hour incubation to allow attachment, serial dilutions of StAMPs from a 5 mg/mL water stock, or vehicle, were then added to the cells in a final volume of 100 μl. After incubating at 37° C. for 48 hours, 100 μl of CellTiter-Glo® reagent was added to the cells, and the plates were incubated 10 minutes at room temperature. Luminescence was then measured on a microplate reader.
as §2

Structure (SMILES) | Minimum Inhibitory Concentration (MIC) E. coli (E. coli) [µg/mL] | Minimum Inhibitory Concentration (MIC) A. baumannii (A. baumannii) [µg/mL] | Minimum Inhibitory Concentration (MIC) P. aeruginosa (P. aeruginosa) [µg/mL] | Minimum Inhibitory Concentration (MIC) K. pneumoniae (K. pneumoniae) [µg/mL] | Minimum Inhibitory Concentration (MIC) S. aureus (S. aureus) [µg/mL] | IC50 at 48 hours (in vitro) [µg/mL]
CC(C)[C@@H]1NC(=O)[C@@](C)(NC(=O)[C@H](C)NC(=O)[C@H](CCCCN)NC(=O)CNC(=O)[C@H](Cc2ccccc2)NC(=O)[C@H](CCCCN)NC(=O)[C@H](CCCCN)NC(=O)[C@H](CCCCN)NC(=O)[C@H](CCCCN)NC(=O)[C@H](CCN)NC(=O)[C@]2(C)CCCC=CCCC[C@](C)(NC(=O)CN)C(=O)NCC(=O)N[C@@H](CCCCN)C(=O)N[C@@H](Cc3ccccc3)C(=O)N2)CCCC=CCCC[C@@](C)(C(=O)N[C@@H](C)C(=O)N[C@@H](CCCCN)C(=O)N[C@@H](CCCCN)C(N)=O)NC(=O)[C@H](CCC(=O)O)NC(=O)CNC1=O (single isomer, unassigned) [compound 41] | 2 | 2 | 4 | 4 | >64 | 115 (≈ 45.3 µM)
CC(C)[C@@H]1NC(=O)[C@H](C(C)C)NC(=O)[C@@](C)(NC(=O)[C@H](C)NC(=O)[C@H](CCCCN)NC(=O)CNC(=O)[C@@H](Cc2ccccc2)NC(=O)[C@H](CCCCN)NC(=O)[C@H](CCCCN)NC(=O)[C@H](CCCCN)NC(=O)[C@H](CCCCN)NC(=O)[C@H](Cc2c[nH]cn2)NC(=O)[C@]2(C)CCCC=CCCC[C@](C)(NC(=O)CN)C(=O)NCC(=O)N[C@@H](CCCCN)C(=O)N[C@H](Cc3ccccc3)C(=O)N2)CCCC=CCCC[C@@](C)(C(=O)N[C@@H](C)C(=O)N[C@@H](CCCCN)C(=O)N[C@@H](CCCCN)C(N)=O)NC(=O)[C@H](CCC(=O)O)NC1=O [compound 28] (H-G[S5]GK[dF][S5]HKKKK[dF]GKA[S5]VVE[S5]AKK-NH2; staple 2-6, 16-20) | 64 | 16 | 64 | >64 | >64 | 201 (≈ 76.9 µM)
CC(C)[C@@H]1NC(=O)[C@@](C)(NC(=O)[C@H](C)NC(=O)[C@H](CCCCN)NC(=O)CNC(=O)[C@H](Cc2ccccc2)NC(=O)[C@H](CCCCN)NC(=O)[C@H](CCCCN)NC(=O)[C@H](CCCCN)NC(=O)[C@H](CN)NC(=O)[C@H](CCCCN)NC(=O)[C@]2(C)CCCC=CCCC[C@](C)(NC(=O)CN)C(=O)NCC(=O)N[C@@H](CCCCN)C(=O)N[C@@H](Cc3ccccc3)C(=O)N2)CCCC=CCCC[C@@](C)(C(=O)N[C@@H](C)C(=O)N[C@@H](CCCCN)C(=O)N[C@@H](CCCCN)C(N)=O)NC(=O)[C@H](CCC(=O)O)NC(=O)CNC1=O [compound 47] (H-G[S5]GKF[S5]K[Dap]KKKFGKA[S5]VGE[S5]AKK-NH2; staple 2-6, 16-20) | 2 | 2 | 4 | 6 | >64 | –
CC(C)[C@@H]1NC(=O)[C@@](C)(NC(=O)[C@H](C)NC(=O)[C@H](CCCCN)NC(=O)CNC(=O)[C@H](Cc2ccccc2)NC(=O)[C@H](CCCCN)NC(=O)[C@H](CN)NC(=O)[C@H](CCCCN)NC(=O)[C@H](CCCCN)NC(=O)[C@H](CCCCN)NC(=O)[C@]2(C)CCCC=CCCC[C@](C)(NC(=O)CN)C(=O)NCC(=O)N[C@@H](CCCCN)C(=O)N[C@@H](Cc3ccccc3)C(=O)N2)CCCC=CCCC[C@@](C)(C(=O)N[C@@H](C)C(=O)N[C@@H](CCCCN)C(=O)N[C@@H](CCCCN)C(N)=O)NC(=O)[C@H](CCC(=O)O)NC(=O)CNC1=O [compound 48] (H-G[S5]GKF[S5]KKK[Dap]KFGKA[S5]VGE[S5]AKK-NH2; staple 2-6, 16-20) | 4 | 2 | 8 | 16 | >64 | –
CC(C)[C@@H]1NC(=O)[C@@](C)(NC(=O)[C@H](C)NC(=O)[C@H](CCCCN)NC(=O)CNC(=O)[C@H](Cc2ccccc2)NC(=O)[C@H](CN)NC(=O)[C@H](CCCCN)NC(=O)[C@H](CCCCN)NC(=O)[C@H](CCCCN)NC(=O)[C@H](CCCCN)NC(=O)[C@]2(C)CCCC=CCCC[C@](C)(NC(=O)CN)C(=O)NCC(=O)N[C@@H](CCCCN)C(=O)N[C@@H](Cc3ccccc3)C(=O)N2)CCCC=CCCC[C@@](C)(C(=O)N[C@@H](C)C(=O)N[C@@H](CCCCN)C(=O)N[C@@H](CCCCN)C(N)=O)NC(=O)[C@H](CCC(=O)O)NC(=O)CNC1=O [compound 49] (H-G[S5]GKF[S5]KKKK[Dap]FGKA[S5]VGE[S5]AKK-NH2; staple 2-6, 16-20) | 4 | 2 | 8 | 8 | >64 | –
CC(C)[C@@H]1NC(=O)[C@@](C)(NC(=O)[C@H](C)NC(=O)[C@H](CN)NC(=O)CNC(=O)[C@H](Cc2ccccc2)NC(=O)[C@H](CCCCN)NC(=O)[C@H](CCCCN)NC(=O)[C@H](CCCCN)NC(=O)[C@H](CCCCN)NC(=O)[C@H](CCCCN)NC(=O)[C@]2(C)CCCC=CCCC[C@](C)(NC(=O)CN)C(=O)NCC(=O)N[C@@H](CCCCN)C(=O)N[C@@H](Cc3ccccc3)C(=O)N2)CCCC=CCCC[C@@](C)(C(=O)N[C@@H](C)C(=O)N[C@@H](CCCCN)C(=O)N[C@@H](CCCCN)C(N)=O)NC(=O)[C@H](CCC(=O)O)NC(=O)CNC1=O [compound 50] (H-G[S5]GKF[S5]KKKKKFG[Dap]A[S5]VGE[S5]AKK-NH2; staple 2-6, 16-20) | 4 | 2 | 8 | 8 | >64 | –
CC(C)[C@@H]1NC(=O)[C@@](C)(NC(=O)[C@H](C)NC(=O)[C@H](CCCCN)NC(=O)CNC(=O)[C@H](Cc2ccccc2)NC(=O)[C@H](CCCCN)NC(=O)[C@H](CCCCN)NC(=O)[C@H](CCCCN)NC(=O)[C@H](CCCCN)NC(=O)[C@H](CCCCN)NC(=O)[C@]2(C)CCCC=CCCC[C@](C)(NC(=O)CN)C(=O)NCC(=O)N[C@@H](CCCCN)C(=O)N[C@@H](Cc3ccccc3)C(=O)N2)CCCC=CCCC[C@@](C)(C(=O)N[C@@H](C)C(=O)N[C@@H](CN)C(=O)N[C@@H](CCCCN)C(N)=O)NC(=O)[C@H](CCC(=O)O)NC(=O)CNC1=O [compound 51] (H-G[S5]GKF[S5]KKKKKFGKA[S5]VGE[S5]A[Dap]K-NH2; staple 2-6, 16-20) | 2 | 2 | 4 | 4 | >64 | –
CC(C)[C@@H]1NC(=O)[C@@](C)(NC(=O)[C@H](C)NC(=O)[C@H](CCCCN)NC(=O)CNC(=O)[C@H](Cc2ccccc2)NC(=O)[C@H](CCCCN)NC(=O)[C@H](CCCCN)NC(=O)[C@H](CCCCN)NC(=O)[C@H](CCCCN)NC(=O)[C@H](CCCCN)NC(=O)[C@]2(C)CCCC=CCCC[C@](C)(NC(=O)CN)C(=O)NCC(=O)N[C@@H](CCCCN)C(=O)N[C@@H](Cc3ccccc3)C(=O)N2)CCCC=CCCC[C@@](C)(C(=O)N[C@@H](C)C(=O)N[C@@H](CCCCN)C(=O)N[C@@H](CN)C(N)=O)NC(=O)[C@H](CCC(=O)O)NC(=O)CNC1=O [compound 52] (H-G[S5]GKF[S5]KKKKKFGKA[S5]VGE[S5]AK[Dap]-NH2; staple 2-6, 16-20) | 2 | 2 | 4 | 8 | >64 | –
